# Data from US8735387B2, “Oxazolopyrimidines as Edg-1 receptor agonists” (Sanofi, priority 2008, dated 2014).
# Molecular target: T1, human Edg-1 receptor (Homo sapiens, UniProt P21453)
# T1 construct: expressed in transfected cells; membrane preparation
# Assay: GTP-γ-S assay using human Edg-1 receptors (scintillation proximity assay, membrane preparation from CHO Flp-In cell line)
# Assay type: biochemical
# Settings: example compound at 10 μM; relative to 10 μM S1P; GTP-γ-S SPA, human Edg-1 membranes
# Outline: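 Scintillation proximity GTP-γ-S binding assay measuring receptor activation. Membranes prepared from a CHO Flp-In line stably overexpressing N-terminally FLAG-tagged human Edg-1.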
# T1 sequence (P21453 whole entry): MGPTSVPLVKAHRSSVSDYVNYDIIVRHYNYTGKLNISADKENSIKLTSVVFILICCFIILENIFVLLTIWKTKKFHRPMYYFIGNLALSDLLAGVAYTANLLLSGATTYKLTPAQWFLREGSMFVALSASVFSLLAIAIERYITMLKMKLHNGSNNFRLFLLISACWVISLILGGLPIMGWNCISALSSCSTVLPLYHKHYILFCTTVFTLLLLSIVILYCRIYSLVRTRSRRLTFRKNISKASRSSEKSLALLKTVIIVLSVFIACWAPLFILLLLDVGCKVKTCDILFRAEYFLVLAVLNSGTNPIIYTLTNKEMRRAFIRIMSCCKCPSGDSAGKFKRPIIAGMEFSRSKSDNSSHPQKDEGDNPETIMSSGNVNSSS
row,Structure (SMILES),% Activation (Edg-1 receptor activation in percent of the activation by 10 μM S1P) [%]
1,CCOc1nc(Cc2ccc(Cl)cc2)nc2oc(-c3cc(C)c(OCC(=O)NCCC(=O)OC(C)(C)C)c(C)c3)nc12 [Example 255],74
2,CCCOc1nc(Cc2ccc(Cl)cc2)nc2oc(-c3cc(C)c(OCC(=O)NCC(=O)OC(C)(C)C)c(C)c3)nc12 [Example 256],69
3,CCOc1nc(Cc2ccc(Cl)cc2)nc2oc(-c3cc(C)c(OCC(O)CNCc4ccccc4)c(C)c3)nc12 (stereo not shown) [Example 257],122
4,CCOc1nc(Cc2ccc(Cl)cc2)nc2oc(-c3cc(C)c(OCC(O)CNC(=O)CO)c(C)c3)nc12 (stereo not shown) [Example 258],97
5,CCOc1nc(Cc2ccc(Cl)cc2)nc2oc(-c3cc(C)c(OCC(O)CN(C(C)C)C(C)C)c(C)c3)nc12 (stereo not shown) [Example 259],66
6,CCOc1nc(Cc2ccc(Cl)cc2)nc2oc(-c3cc(C)c(OCC(O)CNC(=O)C4(O)CC4)c(C)c3)nc12 (stereo not shown) [Example 260],95
7,CCOc1nc(Cc2ccc(Cl)cc2)nc2oc(-c3cc(C)c(OCC(O)CNC4CCC(C(F)(F)F)CC4)c(C)c3)nc12 (stereo not shown) [Example 261],86
8,CCOc1nc(Cc2ccc(Cl)cc2)nc2oc(-c3cc(C)c(OCC(O)CNC4CCN(CC(C)C)CC4)c(C)c3)nc12 (stereo not shown) [Example 262],43
9,CCOc1nc(Cc2ccc(Cl)cc2)nc2oc(-c3cc(C)c(OCC(O)CN)c(C)c3)nc12 (stereo not shown) [Example 263],138
10,CCOc1nc(Cc2ccc(Cl)cc2)nc2oc(-c3cc(C)c(OCC(O)CN(C)C)c(C)c3)nc12 (stereo not shown) [Example 264],55
11,CCOc1nc(Cc2ccc(Cl)cc2)nc2oc(-c3cc(C)c(OCC(O)CNC4CCC(C)CC4)c(C)c3)nc12 (stereo not shown) [Example 265],132
12,CCOc1nc(Cc2ccc(Cl)cc2)nc2oc(-c3cccc(OCC(=O)NCCN4CCOCC4)c3)nc12 [Example 266],52
13,CCOc1nc(Cc2ccc(Cl)cc2)nc2oc(-c3cccc(OCC(=O)NCC(=O)O)c3)nc12 [Example 267],72
14,CCOc1nc(Cc2ccc(Cl)cc2)nc2oc(-c3cccc(OCC(=O)N[C@@H](C)C(=O)O)c3)nc12 [Example 268],100
15,CCOc1nc(Cc2ccc(Cl)cc2)nc2oc(-c3cccc(OCC(=O)N4CCC[C@@H]4C(=O)O)c3)nc12 [Example 269],69
16,CCOc1nc(Cc2ccc(Cl)cc2)nc2oc(-c3cccc(OCC(=O)N4CCC[C@H]4C(=O)O)c3)nc12 [Example 270],104
17,CCOc1nc(Cc2ccc(Cl)cc2)nc2oc(-c3cccc(OCC(=O)NC(C)(C)C(=O)O)c3)nc12 [Example 271],53
18,CCOc1nc(Cc2ccc(Cl)cc2)nc2oc(-c3cc(C)c(OCC(O)CS(=O)(=O)c4nnc(C)[nH]4)c(C)c3)nc12 (stereo not shown) [Example 272],105
19,CCOc1nc(Cc2ccc(Cl)cc2)nc2oc(-c3ccc(O)c(F)c3)nc12 [Example 273],106
20,CCOc1nc(Cc2ccc(Cl)cc2)nc2oc(-c3cc(C)c(OCCCS(=O)(=O)c4nnc(C5CC5)[nH]4)c(C)c3)nc12 [Example 274],120
21,CCOc1nc(Cc2ccc(Cl)cc2)nc2oc(-c3cc(C)c(OCCCS(=O)(=O)c4nnc(C(C)C)[nH]4)c(C)c3)nc12 [Example 275],88
22,CCOc1nc(Cc2ccc(Cl)cc2)nc2oc(-c3cc(C)c(OCCCSc4nnc(C5CC5)[nH]4)c(C)c3)nc12 [Example 276],54
23,CCOc1nc(Cc2ccc(Cl)cc2)nc2oc(-c3ccc(OC)c(F)c3)nc12 [Example 277],49
24,CCOc1nc(Cc2ccc(Cl)cc2)nc2oc(-c3cc(C)c(OCCCS(=O)(=O)c4nnc(C(C)(C)C)[nH]4)c(C)c3)nc12 [Example 278],105
25,CCOc1nc(Cc2ccc(Cl)cc2)nc2oc(-c3ccc(OCC(=O)NCCN4CCOCC4)c(F)c3)nc12 [Example 279],77
26,CCOc1nc(Cc2ccc(Cl)cc2)nc2oc(-c3cc(C)c(OCC(O)CNCCCNS(C)(=O)=O)c(C)c3)nc12 (stereo not shown) [Example 280],53
27,CCOc1nc(Cc2ccc(Cl)cc2)nc2oc(-c3cc(C)c(OCC(O)CSc4nnc(C5CC5)[nH]4)c(C)c3)nc12 (stereo not shown) [Example 281],79
28,CCOc1nc(Cc2ccc(Cl)cc2)nc2oc(-c3cc(C)c(OCC(O)CSc4nnc(C(C)(C)C)[nH]4)c(C)c3)nc12 (stereo not shown) [Example 282],108

row,Structure (SMILES),% Activation (Edg-1 receptor activation in percent of the activation by 10 μM S1P) [%]
1,CCOc1nc(Cc2ccc(Cl)cc2)nc2oc(-c3cc(C)c(OCC(O)CS(=O)(=O)c4nnc(C(C)(C)C)[nH]4)c(C)c3)nc12 (stereo not shown) [Example 283],92
2,CCOc1nc(Cc2ccc(Cl)cc2)nc2oc(-c3cccc(OC)c3)nc12 [Example 284],103
3,CCOc1nc(Cc2ccc(Cl)cc2)nc2oc(-c3cc(C)c(OCCCNCCc4nc(O)n[nH]4)c(C)c3)nc12 [Example 285],146
4,CCOc1nc(Cc2ccc(Cl)cc2)nc2oc(-c3cc(C)c(OCC(O)C[S+]([O-])c4ncn[nH]4)c(C)c3)nc12 (stereo not shown) [Example 286],114
5,CCOc1nc(Cc2ccc(Cl)cc2)nc2oc(-c3cc(C)c(OCC(=O)NCCS(N)(=O)=O)c(C)c3)nc12 [Example 287],112
6,CCOc1nc(Cc2ccc(Cl)cc2)nc2oc(-c3cc(C)c(OCC(=O)NCCCC(=O)O)c(C)c3)nc12 [Example 288],113
7,CCCOc1nc(Cc2ccc(Cl)cc2)nc2oc(-c3cc(C)c(OCCCN[C@@H](Cc4ccccc4)C(=O)O)c(C)c3)nc12 [Example 289],80
8,CCOc1nc(Cc2ccc(Cl)cc2)nc2oc(-c3cc(C)c(OCC(=O)NCCNS(C)(=O)=O)c(C)c3)nc12 [Example 290],114
9,CCOc1nc(Cc2ccc(Cl)cc2)nc2oc(-c3cc(C)c(OCC(O)CS(=O)(=O)c4ncn[nH]4)c(C)c3)nc12 (stereo not shown) [Example 291],116
10,CCOc1nc(Cc2ccc(Cl)cc2)nc2oc(-c3cc(C)c(OCCC[S+]([O-])c4ncn[nH]4)c(C)c3)nc12 (stereo not shown) [Example 292],86
11,CCOc1nc(Cc2ccc(Cl)cc2)nc2oc(-c3cc(C)c(OCC(O)CSc4ncn[nH]4)c(C)c3)nc12 (stereo not shown) [Example 293],99
12,CCOc1nc(Cc2ccc(Cl)cc2)nc2oc(-c3cc(C)c(OCC(=O)NCC#N)c(C)c3)nc12 [Example 294],83
13,CCOc1nc(Cc2ccc(Cl)cc2)nc2oc(-c3cc(C)c(OCCCS(=O)(=O)c4ncn[nH]4)c(C)c3)nc12 [Example 295],100
14,CCOc1nc(Cc2ccc(Cl)cc2)nc2oc(-c3cc(C)c(OCCCSc4ncn[nH]4)c(C)c3)nc12 [Example 296],52
15,CCOc1nc(Cc2ccc(Cl)cc2)nc2oc(-c3cccc(OCC(=O)N[C@@H](CO)C(=O)O)c3)nc12 [Example 297],99
16,CCOc1nc(Cc2ccc(Cl)cc2)nc2oc(-c3cccc(OCC(=O)NCCC(=O)O)c3)nc12 [Example 298],92
17,CCOc1nc(Cc2ccc(Cl)cc2)nc2oc(-c3cc(C)c(OCC(=O)NCCCNS(C)(=O)=O)c(C)c3)nc12 [Example 299],94
18,CCOc1nc(Cc2ccc(Cl)cc2)nc2oc(-c3cc(C)c(OCC(O)CS(=O)(=O)c4nnc(C5CC5)[nH]4)c(C)c3)nc12 (stereo not shown) [Example 300],89
19,CCOc1nc(Cc2ccc(Cl)cc2)nc2oc(-c3cc(C)c(OCC4(CO)COC4)c(C)c3)nc12 [Example 301],97
20,CCOc1nc(Cc2ccc(Cl)cc2)nc2oc(-c3cccc(O)c3)nc12 [Example 302],103
21,CCCOc1nc(CN2CC[C@@H](F)C2)nc2oc(-c3cccc(F)c3)nc12 [Example 303],104
22,CCCOc1nc(CN2CCCC(C(F)(F)F)C2)nc2oc(-c3cccc(F)c3)nc12 (stereo not shown) [Example 304],102
23,CCCOc1nc(Cc2ccc(Cl)cc2)nc2oc(-c3cc(C)c(OCC(O)CNC(=O)c4ccco4)c(C)c3)nc12 (stereo not shown) [Example 305],103
24,CCCOc1nc(Cc2ccc(Cl)cc2)nc2oc(-c3cc(C)c(OCC(=O)N4CCOCC4)c(C)c3)nc12 [Example 306],81
25,CCCOc1nc(Cc2ccc(Cl)cc2)nc2oc(-c3cc(C)c(OCC(=O)N4CCC[C@H]4C(=O)OC(C)(C)C)c(C)c3)nc12 [Example 307],10
26,CCCOc1nc(Cc2ccc(Cl)cc2)nc2oc(-c3cc(C)c(OCC(O)CNC(=O)C4(O)CC4)c(C)c3)nc12 (stereo not shown) [Example 308],107
27,CCOc1nc(CC2CCCCC2)nc2oc(-c3cccc(C)c3)nc12 [Example 309],104
